Laboratory results published in publication PMC12147761 (Journal of medicinal chemistry, 2025).

Experiments:
[1] = biological target: T1, CDK13/CycK (Homo sapiens, UniProt Q14004); experiment: ADP-Glo kinase assay, CDK13; assay type: biochemical; conditions: means from three independent experiments
T1 construct: ICE Bioscience Inc. (assay service)
Experimental: (§1) The kinase inhibitory activities of the compounds against CDK12 and CDK13 were preliminarily evaluated using the ADP-Glo kinase assay. Cell growth inhibition was determined in VCaP prostate cancer cells, which were characterized as being sensitive to CDK12/13 inhibition.[14]

[2] = tested on: VCaP cells; experiment: Cell apoptosis assay by flow cytometry; assay type: cell-based, human; conditions: YJZ5118 at 100 nM
Experimental: Cells were seeded in six-well plates and incubated for 24 h at 37 °C and 5% CO2. Cells were then treated with the indicated concentrations of the tested compounds for 48 h. The treated cells then were collected, centrifuged and washed twice by cold PBS. […] Cell samples were analyzed with flow cytometry (SH800S cell sorter, Sony Biotechnology).

[3] = tested on: VCaP prostate cancer cells; experiment: Cell proliferation assay (CellTiter-Glo), VCaP; assay type: cell-based, human; conditions: for IC50: Homo sapiens, VCaP, 120 h, cell growth inhibition, 5 days, CellTiter-Glo
Experimental: as §1
Cells were seeded in 96-well plates and incubated at 37 °C and 5% CO2. After overnight incubation, serial dilutions of tested compounds were added to the plate. The assay was tested with Cell Titer-Glo (Promega) after 5 days. The luminescence signal was detected by the Infinite M1000 Pro plate reader (Tecan), and the IC50 values were calculated by GraphPad Prism 10.

[4] = biological target: T2, CDK12/CycK (Homo sapiens, UniProt Q9NYV4); experiment: ADP-Glo kinase assay, CDK12; assay type: biochemical; conditions: for IC50: ADP-Glo kinase assay, means from three independent experiments
T2 construct: ICE Bioscience Inc. (assay service)
Experimental: as §1
All the kinase activity were performed using an ADP-Glo kinase assay by ICE Bioscience Inc. (Beijing, China). Kinome selectivity profiles (KINOMEscan profiling) and Kd detection were performed by Eurofins DiscoveryX Corporation (San Diego, CA, USA).

[5] = biological target: T3, CDK15/CycY (Homo sapiens, UniProt Q96Q40); experiment: CDK family panel, ADP-Glo; assay type: biochemical
T3 construct: ICE Bioscience Inc. (assay service)

[6] = tested on: phosphorylation of RNA polymerase II at Ser2; experiment: Washout experiment, RNA polymerase II Ser2 phosphorylation (immunoblot); assay type: cell-based, human; conditions: VCaP cells; YJZ5118 100 nM
Experimental: (§2) The previously reported reversible inhibitor 10 was included for comparison. VCaP cells were treated with the compounds for 6 h, after which the compounds were removed, and the cells were cultured in compound-free media for 5 days.
Generally, after incubation with the compounds for the indicated time, the tested cells were washed by cold PBS buffer (Gibco) and lysed with RIPA buffer (ThermoFisher Scientific) supplemented with cOmplete protease inhibitor cocktail tablets (Sigma-Aldrich). The cell lysate was treated with ultrasonic for 20s, following a centrifugation of 14000 rpm at 4°C for 10 min. The protein concentration was measured by BCA protein assay (DC Protein Assay, BIO-RAD). An equal amount of protein was loaded to 4–12% Bis-Tris gels and underwent SDS-PAGE electrophoresis at 120 V for 90 min. The proteins were transferred to a nitrocellulose (NC) membrane (Thermo Scientific) and the membranes were blocked in 5% milk buffer at room temperature for 1h, followed by incubating with primary antibody at the recommended dilution at 4°C for overnight. The membranes were washed by PBST for three times and incubated with anti-rabbit or anti-mouse HRP-conjugated secondary antibody for 1h at room temperature, after which the membranes were imaged by Odyssey CLx Imager (LiCOR Biosciences).

[7] = tested on: CDK12; set-up: method as in PMID 30067358; conditions: LANCE Ultra assay; read-out: reported IC50 CDK12; cited from earlier work
[8] = tested on: CDK13; set-up: method as in PMID 30067358; conditions: LANCE Ultra assay; read-out: reported IC50 CDK13; cited from earlier work
[9] = tested on: VCaP cells; experiment: Washout experiment, cell growth; assay type: cell-based, human; conditions: VCaP cells treated 6 h, compound removed, 5 days in compound-free media
Experimental: as §2

[10] = Permeability and efflux ratio in Caco-2 cells; assay type: in vitro ADME; conditions: human
[11] = tested on: VCaP CRPC xenograft; experiment: In vivo efficacy, VCaP CRPC mouse model; set-up: species or system mice; conditions: YJZ5118 i.p., q.d., uprosertib p.o., 5x/week, 27 days, compared to vehicle
Experimental: All the animal experiments were performed under an approved animal protocol (Protocol ID: PRO00010006, PI, Arul Chinnaiyan) by the Institutional Animal Care & Use Committee of the University of Michigan. Six- to eight-week-old NSG (Jackson Laboratory) or CB17SCID female (Charles River Laboratory) mice were in a regular SPF housing room prior to cell injection. Briefly, 5 ×10^6 cells of VCaP CRPC were injected […] of NSG or CB17SCID mice, respectively. After tumor size reached approximately 200–400 mm^3, animals were subjected to drug treatment. […] Vehicle consisted of 20% PEG400, 6% Cremophor EL, and 74% PBS solution. Tumors were collected at the end of the experiment for Western blot analysis.

[12] = tested on: 468 kinases; experiment: KINOMEscan kinase selectivity profiling; assay type: binding; conditions: 1 μM; 403 non-mutant kinases
Experimental: Figure S1. The results of selectivity profiling study of compound 14h. (A) Chemical structure and the K d values of compound 14h against CDK12/13, and the KinomeScan kinase selectivity proﬁles of compound 14h at 1 μM against 468 kinases; (B) KinomeScan profiling results of compound 14h against CDK family members.
(1 picture or pasted object on this page, not shown here)

[13] = Pharmacokinetics study in mice; assay type: in vivo, ICR mice; conditions: both sexes, ICR, mouse, plasma

T2 sequence (Q9NYV4 whole entry): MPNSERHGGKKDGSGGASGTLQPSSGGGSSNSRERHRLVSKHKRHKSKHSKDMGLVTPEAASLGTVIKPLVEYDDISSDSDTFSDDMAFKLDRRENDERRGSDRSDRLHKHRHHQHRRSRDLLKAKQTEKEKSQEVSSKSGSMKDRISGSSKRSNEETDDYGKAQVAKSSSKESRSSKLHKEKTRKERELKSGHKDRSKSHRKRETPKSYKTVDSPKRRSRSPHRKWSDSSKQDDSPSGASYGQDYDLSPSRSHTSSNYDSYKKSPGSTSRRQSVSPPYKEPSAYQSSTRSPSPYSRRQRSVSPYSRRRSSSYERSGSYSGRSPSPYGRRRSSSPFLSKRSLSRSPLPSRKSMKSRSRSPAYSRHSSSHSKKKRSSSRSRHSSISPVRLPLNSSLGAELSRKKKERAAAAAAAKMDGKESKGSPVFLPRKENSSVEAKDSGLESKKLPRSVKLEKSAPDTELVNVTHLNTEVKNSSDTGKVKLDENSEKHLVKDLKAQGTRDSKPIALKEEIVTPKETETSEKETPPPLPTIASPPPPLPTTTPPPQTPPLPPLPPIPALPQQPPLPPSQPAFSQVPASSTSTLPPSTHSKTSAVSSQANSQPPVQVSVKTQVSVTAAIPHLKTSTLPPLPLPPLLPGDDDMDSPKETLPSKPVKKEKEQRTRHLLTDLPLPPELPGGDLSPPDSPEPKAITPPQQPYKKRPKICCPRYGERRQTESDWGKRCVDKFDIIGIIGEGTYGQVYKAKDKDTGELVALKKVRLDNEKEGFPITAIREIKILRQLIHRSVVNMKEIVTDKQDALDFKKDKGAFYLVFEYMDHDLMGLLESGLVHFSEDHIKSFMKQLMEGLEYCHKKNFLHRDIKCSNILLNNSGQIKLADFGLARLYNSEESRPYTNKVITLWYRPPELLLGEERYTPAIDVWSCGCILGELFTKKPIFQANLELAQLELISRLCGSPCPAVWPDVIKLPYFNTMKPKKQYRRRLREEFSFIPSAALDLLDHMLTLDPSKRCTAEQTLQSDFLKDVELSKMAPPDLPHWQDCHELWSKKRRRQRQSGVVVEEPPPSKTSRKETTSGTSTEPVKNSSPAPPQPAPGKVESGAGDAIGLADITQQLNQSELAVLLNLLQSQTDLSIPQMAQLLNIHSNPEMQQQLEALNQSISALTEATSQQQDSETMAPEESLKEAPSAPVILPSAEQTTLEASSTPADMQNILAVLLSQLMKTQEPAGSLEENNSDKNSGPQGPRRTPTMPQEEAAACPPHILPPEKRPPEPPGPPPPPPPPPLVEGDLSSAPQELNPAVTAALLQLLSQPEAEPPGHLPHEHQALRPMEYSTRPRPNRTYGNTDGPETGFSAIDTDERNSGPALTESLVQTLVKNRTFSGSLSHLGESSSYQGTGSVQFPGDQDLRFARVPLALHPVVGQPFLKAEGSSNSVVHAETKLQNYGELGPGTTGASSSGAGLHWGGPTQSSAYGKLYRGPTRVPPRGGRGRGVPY
T2 sequence (O75909 whole entry partner): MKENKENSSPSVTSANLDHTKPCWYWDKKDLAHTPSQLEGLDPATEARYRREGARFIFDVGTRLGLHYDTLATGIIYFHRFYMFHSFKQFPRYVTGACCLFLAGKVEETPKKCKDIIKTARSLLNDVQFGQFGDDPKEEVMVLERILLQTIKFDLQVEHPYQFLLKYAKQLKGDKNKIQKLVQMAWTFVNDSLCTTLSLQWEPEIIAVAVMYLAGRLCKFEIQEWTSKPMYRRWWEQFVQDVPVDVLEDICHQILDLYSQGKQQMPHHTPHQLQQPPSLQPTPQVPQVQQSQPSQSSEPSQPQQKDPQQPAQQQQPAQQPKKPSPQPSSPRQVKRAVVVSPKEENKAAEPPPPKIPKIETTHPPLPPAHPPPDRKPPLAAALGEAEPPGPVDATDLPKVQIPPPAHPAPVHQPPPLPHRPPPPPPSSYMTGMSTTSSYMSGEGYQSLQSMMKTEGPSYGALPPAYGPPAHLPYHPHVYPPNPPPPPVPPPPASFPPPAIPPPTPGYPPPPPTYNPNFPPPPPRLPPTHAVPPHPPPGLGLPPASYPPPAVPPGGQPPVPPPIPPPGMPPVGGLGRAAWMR
T1 sequence (Q14004 whole entry): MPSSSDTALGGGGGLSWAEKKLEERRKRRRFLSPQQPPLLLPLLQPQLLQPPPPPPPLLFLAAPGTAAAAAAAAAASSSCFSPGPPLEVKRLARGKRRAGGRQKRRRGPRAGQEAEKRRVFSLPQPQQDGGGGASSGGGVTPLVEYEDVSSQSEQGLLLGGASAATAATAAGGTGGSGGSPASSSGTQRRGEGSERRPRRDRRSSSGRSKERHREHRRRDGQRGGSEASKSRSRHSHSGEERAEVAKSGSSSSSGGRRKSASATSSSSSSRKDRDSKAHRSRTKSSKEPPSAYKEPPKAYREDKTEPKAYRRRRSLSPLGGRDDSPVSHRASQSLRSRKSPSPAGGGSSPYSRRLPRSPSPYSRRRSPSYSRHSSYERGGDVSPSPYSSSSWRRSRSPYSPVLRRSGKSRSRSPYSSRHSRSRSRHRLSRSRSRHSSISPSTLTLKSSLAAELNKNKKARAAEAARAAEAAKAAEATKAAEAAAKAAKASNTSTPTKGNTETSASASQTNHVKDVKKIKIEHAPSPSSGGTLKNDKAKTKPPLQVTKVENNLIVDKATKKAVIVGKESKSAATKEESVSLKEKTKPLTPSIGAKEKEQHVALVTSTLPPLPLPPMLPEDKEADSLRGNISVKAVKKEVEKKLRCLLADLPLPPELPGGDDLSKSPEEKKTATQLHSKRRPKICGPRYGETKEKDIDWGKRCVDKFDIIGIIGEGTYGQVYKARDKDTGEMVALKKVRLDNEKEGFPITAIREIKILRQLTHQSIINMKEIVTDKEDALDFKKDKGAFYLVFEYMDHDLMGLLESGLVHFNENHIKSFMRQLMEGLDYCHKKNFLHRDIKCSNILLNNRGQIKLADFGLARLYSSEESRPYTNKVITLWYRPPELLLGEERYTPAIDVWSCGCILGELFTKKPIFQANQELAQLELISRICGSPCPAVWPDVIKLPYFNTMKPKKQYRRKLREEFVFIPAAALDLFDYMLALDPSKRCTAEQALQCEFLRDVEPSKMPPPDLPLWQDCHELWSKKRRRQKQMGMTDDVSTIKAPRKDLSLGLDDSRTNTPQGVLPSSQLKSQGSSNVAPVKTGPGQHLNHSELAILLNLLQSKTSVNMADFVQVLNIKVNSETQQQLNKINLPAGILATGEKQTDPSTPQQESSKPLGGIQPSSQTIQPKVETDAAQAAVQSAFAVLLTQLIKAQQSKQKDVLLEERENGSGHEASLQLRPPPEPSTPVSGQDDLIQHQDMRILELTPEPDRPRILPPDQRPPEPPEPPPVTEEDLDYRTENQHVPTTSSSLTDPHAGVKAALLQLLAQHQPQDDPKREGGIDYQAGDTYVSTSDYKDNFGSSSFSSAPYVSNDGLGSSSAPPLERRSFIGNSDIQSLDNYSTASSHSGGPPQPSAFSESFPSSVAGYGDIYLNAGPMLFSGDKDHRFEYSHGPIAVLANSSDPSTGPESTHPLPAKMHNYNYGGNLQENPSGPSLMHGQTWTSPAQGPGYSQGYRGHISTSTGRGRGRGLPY
T1 sequence (O75909 whole entry partner): as the sequence (O75909 whole entry partner) above
T3 sequence (Q96Q40 whole entry, species assumed): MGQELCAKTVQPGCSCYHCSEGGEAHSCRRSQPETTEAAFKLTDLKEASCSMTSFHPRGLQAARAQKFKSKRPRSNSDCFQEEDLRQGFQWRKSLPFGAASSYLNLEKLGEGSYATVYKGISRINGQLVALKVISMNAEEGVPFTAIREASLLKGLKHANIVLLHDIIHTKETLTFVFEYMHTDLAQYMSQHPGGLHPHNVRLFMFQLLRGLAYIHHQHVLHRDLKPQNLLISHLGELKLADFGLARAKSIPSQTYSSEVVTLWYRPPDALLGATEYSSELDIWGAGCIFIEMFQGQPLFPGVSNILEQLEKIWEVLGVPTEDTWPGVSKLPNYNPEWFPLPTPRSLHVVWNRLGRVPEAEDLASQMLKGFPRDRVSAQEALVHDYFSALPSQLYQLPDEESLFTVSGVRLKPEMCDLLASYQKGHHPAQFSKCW
T3 sequence (Q8ND76 whole entry partner, species assumed): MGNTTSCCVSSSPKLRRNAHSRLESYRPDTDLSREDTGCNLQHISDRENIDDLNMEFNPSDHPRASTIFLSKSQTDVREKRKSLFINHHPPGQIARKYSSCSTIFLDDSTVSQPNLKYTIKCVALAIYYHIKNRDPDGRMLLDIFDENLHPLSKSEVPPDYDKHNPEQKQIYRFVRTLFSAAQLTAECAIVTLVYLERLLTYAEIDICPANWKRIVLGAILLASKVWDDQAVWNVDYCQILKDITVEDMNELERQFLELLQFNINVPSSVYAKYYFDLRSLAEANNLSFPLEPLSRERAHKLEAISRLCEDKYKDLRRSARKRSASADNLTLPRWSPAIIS

Row | IC50 [1] | IC50 [3] | IC50 [4] | Compound | further results
1 | 63.3 nM | 33.5 nM | 77.4 nM | CN(C)C/C=C/C(=O)Nc1ccc(C(=O)N2CCC[C@@H](Nc3ncc(Cl)c(-c4c[nH]c5ccccc45)n3)C2)cc1 [Compound 3, THZ531, reference compound] | apoptosis rate [2]: 24.9%
2 |  |  |  | Cn1cc(-c2ccc(N(C(=O)NCc3ccccc3)[C@H]3CC[C@H](Nc4ccc(C#N)cn4)CC3)cc2)ccc1=O [Compound 2, reference compound] | IC50 [5]: 3020 nM; RNA polymerase II Ser2 phosphorylation after washout [6]: recovery of phosphorylation at 4 h after washout; IC50 [7]: 52 nM; IC50 [8]: 10 nM
3 | 177 nM | 57.6 nM | 568 nM | C=CC(=O)Nc1cc(N(C(=O)NCc2ccccc2)[C@H]2CC[C@H](Nc3ccc(C#N)cn3)CC2)ccc1N1CCC(N(C)C)C1 (stereo partly drawn) [Compound 14e, N-(5-(3-benzyl-1-((1r,4r)-4-((5-cyanopyridin-2-yl)amino)cyclohexyl)ureido)-2-(3-(dimethylamino)pyrrolidin-1-yl)phenyl)acrylamide] | 
4 |  |  |  | Cn1cc(-n2cnc3c(NCc4nc5cc(Cl)c(Cl)cc5[nH]4)nc(N4CCOCC4)nc32)cn1 [Compound 10, SR-4835, reference compound] | cell growth inhibitory effect after washout [9]: nearly completely lost following washout
5 |  |  |  | Cn1ncc(Cl)c1-c1cc(C(=O)N[C@H](CN)Cc2ccc(F)c(F)c2)oc1Cl [Uprosertib, reference compound] | tumor growth [11]: significant reduction in tumor growth
6 | 66.8 nM | 39.9 nM | 130 nM | C=CC(=O)Nc1cc(N(C(=O)NCc2ccccc2)[C@H]2CC[C@H](Nc3ccc(C#N)cn3)CC2)ccc1N1CCN(C)CC1 [Compound 14f, N-(5-(3-benzyl-1-((1r,4r)-4-((5-cyanopyridin-2-yl)amino)cyclohexyl)ureido)-2-(4-methylpiperazin-1-yl)phenyl)acrylamide] | 
7 | 73.7 nM | 133 nM | 151 nM | C=CC(=O)Nc1cc(N(C(=O)NCc2ccccc2)[C@H]2CC[C@H](Nc3ccc(C#N)cn3)CC2)ccc1N1CC(N(C)C)C1 [Compound 14d, N-(5-(3-benzyl-1-((1r,4r)-4-((5-cyanopyridin-2-yl)amino)cyclohexyl)ureido)-2-(3-(dimethylamino)azetidin-1-yl)phenyl)acrylamide] | 
8 | 83.9 nM | 76.3 nM | 209 nM | C=CC(=O)Nc1cc(N(C(=O)NCc2ccccc2)[C@H]2CC[C@H](Nc3ccc(C#N)cn3)CC2)ccc1N1C[C@H]2C[C@@H]1CN2C [Compound 14g, N-(5-(3-benzyl-1-((1r,4R)-4-((5-cyanopyridin-2-yl)amino)cyclohexyl)ureido)-2-((1R,4R)-5-methyl-2,5-diazabicyclo[2.2.1]heptan-2-yl)phenyl)acrylamide] | 
9 | 12.8 nM | 59.9 nM | 55 nM | C=CC(=O)Nc1cc(N(C(=O)NCc2ccccc2)[C@H]2CC[C@H](Nc3ccc(C#N)cn3)CC2)ccc1N1CCOCC1 [Compound 14j, N-(5-(3-benzyl-1-((1r,4r)-4-((5-cyanopyridin-2-yl)amino)cyclohexyl)ureido)-2-morpholinophenyl)acrylamide] | 

Row | Compound | IC50 [1] | IC50 [3] | IC50 [4] | further results
10 | C=CC(=O)Nc1cccc(N(C(=O)NCc2ccccc2)[C@H]2CC[C@H](Nc3ccc(C#N)cn3)CC2)c1 [Compound 14b, N-(3-(3-benzyl-1-((1r,4r)-4-((5-cyanopyridin-2-yl)amino)cyclohexyl)ureido)phenyl)acrylamide] | 99 nM | 96.2 nM | 506 nM | fold more potency than 14a in the growth inhibition assay against VCaP cells [3]: 3.4 fold; Papp A→B [10]: 0.91 ×10⁻⁶ cm/s; Papp B→A [10]: 13.7 ×10⁻⁶ cm/s; efflux ratio [10]: 15; reduction in kinase inhibitory potency compared with 14a ([4]; CDK12 and CDK13): 7- to 13 fold
11 | C=CC(=O)Nc1cc(N(C(=O)NCc2ccccc2)[C@H]2CC[C@H](Nc3ccc(C#N)cn3)CC2)ccc1N1CCN(C)[C@@H](C)C1 [Compound 14h, N-(5-(3-benzyl-1-((1r,4S)-4-((5-cyanopyridin-2-yl)amino)cyclohexyl)ureido)-2-((S)-3,4-dimethylpiperazin-1-yl)phenyl)acrylamide] | 21.7 nM | 4.3 nM | 33.1 nM | Number of Hits, S (1) [12]: 0; Number of Hits, S (10) [12]: 2; Number of Hits, S (35) [12]: 6; Selectivity Score S (10) [12]: 0.005; Selectivity Score S (35) [12]: 0.015; AUC(0-t) ([13]; iv, i.v. 2 mg/kg): 309 ng·h/mL; Cmax ([13]; iv, i.v. 2 mg/kg): 658 ng/mL; Tmax ([13]; iv, i.v. 2 mg/kg): 4.8 min; clearance ([13]; iv, i.v. 2 mg/kg): 108 mL/min/kg; half-life ([13]; iv, i.v. 2 mg/kg): 21.6 min; bioavailability ([13]; po, 10 mg/kg, p.o. 10 mg/kg, read-out: F (oral bioavailability)): 42.2%; AUC(0-t) ([13]; po, p.o. 10 mg/kg): 652 ng·h/mL; Cmax ([13]; po, p.o. 10 mg/kg): 499 ng/mL; Tmax ([13]; po, p.o. 10 mg/kg): 30 min; half-life ([13]; po, p.o. 10 mg/kg): 37.2 min
12 | C=CC(=O)Nc1cc(N(C(=O)NCc2ccccc2)[C@H]2CC[C@H](Nc3ccc(C#N)cn3)CC2)ccc1N(C)CCN(C)C [Compound 14c, N-(5-(3-benzyl-1-((1r,4r)-4-((5-cyanopyridin-2-yl)amino)cyclohexyl)ureido)-2-((2-(dimethylamino)ethyl)(methyl)amino)phenyl)acrylamide] | 79.3 nM | 44.4 nM | 191 nM | antiproliferative potency in VCaP cells, fold more potent than lead compound 2 [3]: approximately 44 fold
13 | C=CC(=O)Nc1cc(N(C(=O)NCc2ccccc2)[C@H]2CC[C@H](Nc3ccc(C#N)cn3)CC2)ccc1-c1ccc(=O)n(C)c1 [Compound 14a, N-(5-(3-benzyl-1-((1r,4r)-4-((5-cyanopyridin-2-yl)amino)cyclohexyl)ureido)-2-(1-methyl-6-oxo-1,6-dihydropyridin-3-yl)phenyl)acrylamide] | 14.9 nM | 330 nM | 37.9 nM | antiproliferative potency in VCaP cells, fold more potent than lead compound 2 [3]: approximately 6 fold; Papp A→B [10]: 0.07 ×10⁻⁶ cm/s; Papp B→A [10]: 5.25 ×10⁻⁶ cm/s; efflux ratio [10]: 72.6
14 | C=CC(=O)Nc1cc(N(C(=O)NCc2ccccc2)[C@H]2CC[C@H](Nc3ccc(C#N)cn3)CC2)ccc1N1CCN(C(C)=O)CC1 [Compound 14i, N-(2-(4-acetylpiperazin-1-yl)-5-(3-benzyl-1-((1r,4r)-4-((5-cyanopyridin-2-yl)amino)cyclohexyl)ureido)phenyl)acrylamide] | 164 nM | 45.5 nM | 331 nM | fold weaker potency against the kinases compared to 14f ([4]; CDK12 and CDK13): 2- to 3 fold
